Test results published in publication PMC6362118, “Pharmacophore-guided discovery of CDC25 inhibitors causing cell cycle arrest and tumor regression” (Scientific Reports, 2019).

Experiments:
CDC25A = target: T1, CDC25A (Homo sapiens, UniProt P30304); assay: Enzymatic assay (OMFP substrate) on recombinant CDC25A; format: biochemical; details: for remaining activity at 20 µM: read-out: % remaining activity ± SD (Table S2, second round of selection); for IC50: dose-response on recombinant CDC25A
T1 construct: GST (pGEX vector) (N); made in house; host or cells: E. coli BL21
T1 sequence (P30304 1-524): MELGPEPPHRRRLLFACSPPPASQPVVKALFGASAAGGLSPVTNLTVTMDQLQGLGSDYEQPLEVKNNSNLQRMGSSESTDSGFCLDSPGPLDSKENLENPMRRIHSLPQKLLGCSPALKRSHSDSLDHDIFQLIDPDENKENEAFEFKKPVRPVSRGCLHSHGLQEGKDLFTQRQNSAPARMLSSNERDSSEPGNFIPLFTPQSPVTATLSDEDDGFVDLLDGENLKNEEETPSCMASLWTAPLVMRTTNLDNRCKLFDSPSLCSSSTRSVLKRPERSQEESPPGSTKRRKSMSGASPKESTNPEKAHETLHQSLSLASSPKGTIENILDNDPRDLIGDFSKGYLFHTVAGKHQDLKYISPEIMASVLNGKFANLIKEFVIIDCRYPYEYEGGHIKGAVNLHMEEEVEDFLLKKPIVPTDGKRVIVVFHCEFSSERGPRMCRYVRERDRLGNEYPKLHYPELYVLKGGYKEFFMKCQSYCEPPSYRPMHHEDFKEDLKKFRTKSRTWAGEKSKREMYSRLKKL
Procedure: 57 UPD compounds were dissolved in DMSO at 10 mM stock concentration and stored in
60 Expression and purification of CDC25 phosphatases - CDC25A (kind gift of I.
61 Hoffmann, Heidelberg, Germany), CDC25B and CDC25C (kind gift of B. Gabrielli,
62 Queensland, Australia) in pGEX were expressed in E. coli BL21 cells and purified on 1
63 ml Glutathione Sepharose 4 Fast Flow columns as described 1.
65 Enzymatic assays - CDC25A, CDC25B and CDC25C were appropriately diluted in 10
66 mM Tris-HCl pH 8.0, 50 mM NaCl and assayed in 20 mM Tris-HCl pH 8.0, 75 mM
67 NaCl, 0.5 mM EGTA, 1 mM DTT, 0.1 mg/ml BSA and defined concentrations of
68 compounds. Reactions were started by addition of the substrate OMFP (0.1 mM). Assays
69 were carried out at room temperature in duplicate or triplicate using transparent-bottom,
70 V-shaped 96 well plates and read at defined intervals on a Molecular Devices
71 SpectraMax microplate reader (ex: 490 nm / em: 525 nm). IC50 and kinetic parameters
72 calculated from Lineweaver-Burk double-reciprocal plots of the data were obtained using
73 GraphPad Prism software. […]

HeLa cells [1] = assay: Flow cytometric analysis of cell cycle progression (DNA content) in HeLa cells; format: cell-based; details: for effect on the G1/S transition: HeLa synchronized at G2/M, 10 μM added in mid-G1, analysed 12 h post-release; for effect on cell cycle distribution (DNA content): asynchronous HeLa cells, 10 μM, 15 h
Procedure: Reactions were started by addition of the substrate OMFP (0.1 mM). Assays 69 were carried out at room temperature in duplicate or triplicate using transparent-bottom, 70 V-shaped 96 well plates and read at defined intervals on a Molecular Devices 71 SpectraMax microplate reader (ex: 490 nm / em: 525 nm). IC50 and kinetic parameters 72 calculated from Lineweaver-Burk double-reciprocal plots of the data were obtained using 73 GraphPad Prism software. 74 75 Cell culture - Wild-type HeLa and Kyoto HeLa cells stably expressing mCherry-H2B 76 were maintained in DMEM+L-Glutamine (Gibco, Life Technologies, USA) 77 supplemented with 5% fetal calf serum (FCS) (Gibco) and penicillin-streptomycin (100 […] A549 and Colo741 were grown and maintained like HeLa 79 cells but with 10% FCS. HCT116 were maintained in McCoy's medium supplemented 80 with 10% FCS and penicillin-streptomycin. U2OS-Tet-OFF cells expressing HA-CDC25 81 were grown and maintained in DMEM+L-Glutamine, 10% Tet-free FCS and penicillin- 82 streptomycin in the presence or the absence of 4 μg/ml tetracycline (Sigma, T7660). 83 84 Cell synchronization - Cell synchronization was performed by double thymidine block- 85 release protocol 2 or nocodazole treatment 3 and verified by flow cytometry. 86 87 Cell viability assays - Compounds viability upon 48h treatment with the compounds was 88 assessed as described 4. Data were plotted with Prism 7® and analyzed by non-linear 89 regression. Comparison of single curve fitting to all data set within an experiment was 90 performed with the extra sum-of-squares F-test to determine P values. 91 92 Western blotting - Cell lysis and immunoblot analysis were performed as previously 93 described 5. […] Cells were washed with PBS, resuspended […] To 100 quantify phosphorylation of CDK1 at Tyr15 and H2AX at S139, cells were harvested and 101 examined as described 6. Samples were measured on an AttuneTM NxT Cytometer 102 (ThermoFisher Scientific, Carlsbad, CA, USA) and data were analyzed with FlowJo® 103 software v10 (FlowJo, LLC, Ashland, OR, USA). 104 105 Real Time qRT-PCR - Organoids were lysed in Tri-Reagent (Sigma) as previously 106 described 7 and total RNA was isolated as described by manufacturer's instructions. For […] 108 High Fidelity cDNA Synthesis kit (Roche). Real-time quantitative PCR reactions were 109 performed in three independent biological replicates, each with technical triplicate, using 110 the Applied Biosystems SYBR Green Kit and monitored by the ABI Prism 7900HT 111 system (Applied Biosystem). The following primers were used: 112 Lgr5: Forward [NT] and Reverse 5'- […] 114 Lysozyme: Forward [NT] and Reverse 5'- 115 [NT]3' 116 Cryptdin: Forward [NT] and Reverse 5'- 117 [NT]-binding protein (TBP): Forward [NT] and 119 Reverse [NT] 120 […] 122 amplification curves and the melting temperature analysis of the final amplification […] 4

HCT116 tumors = assay: HCT116 tumor xenograft in zebrafish embryos; format: in vivo; details: 10 µM, 3 dpi
Procedure: Implantation of HCT116 cells into zebrafish embryos were carried out essentially as previously described. Briefly, HCT116 cells were cultured in McCoy’s medium supplemented with 10% FCS and penicillin/streptomycin until ~80% confluence, then labeled for 30 min at 37 °C in 6 μg/mL 1,1′-dioctadecyl-3,3,3′,3′-tetramethylindocarbocyanine perchlorate (DiI, Sigma) in PBS followed by washing 3x in PBS. Labeled cells were implanted in the perivitelline space of 48 hours post-fertilization (hpf) wildtype (AB) zebrafish embryos, kept from the 1-cell stage in 1-phenyl-2-thiourea (PTU)-containing E3-water. […] As control, embryos were incubated in PTU-E3 with 0.1% DMSO (vehicle). Tumor-bearing embryos were incubated at 36 °C for three days and the change in tumor volume was evaluated as the size of the tumors at three days post-implantation (3 dpi) relative to the size immediately after implantation (0 dpi). Metastasis was evaluated at 3 dpi as the number of tumor cells present in the caudal hematopoietic plexus, the main metastatic site for tumors implanted in the perivitelline space.

HeLa cells [2] = assay: Cell viability assay on HeLa cells; format: cell-based; details: Homo sapiens, 48h treatment
Procedure: 75 Cell culture - Wild-type HeLa and Kyoto HeLa cells stably expressing mCherry-H2B
76 were maintained in DMEM+L-Glutamine (Gibco, Life Technologies, USA)
77 supplemented with 5% fetal calf serum (FCS) (Gibco) and penicillin-streptomycin (100
78 U/ml - 100 µg/ml) (Gibco). […]
87 Cell viability assays - Compounds viability upon 48h treatment with the compounds was
88 assessed as described 4. Data were plotted with Prism 7® and analyzed by non-linear
89 regression. Comparison of single curve fitting to all data set within an experiment was
90 performed with the extra sum-of-squares F-test to determine P values. […]

HeLa cells [3] = assay: Time-lapse microscopy of mitosis in synchronized HeLa cells; format: cell-based; details: synchronized HeLa Kyoto cells (mCherry-H2B, GFP-α-tubulin), 5 μM
Procedure: Cells were grown in 35 mm CellView™ cell culture dishes with glass bottom (# 627870, Greiner-BioOne) at a density of 2.5 × 10^5 cells/ml in a humidified cell incubator maintained at 37 °C and 5% CO2. Cell were viewed by phase contrast microscopy with a 10x objective using an Olympus IX 81 motorized inverted microscope (Olympus, Hamburg, Germany) equipped with external temperature control chamber and CO2 bottle to maintain cells at 37 °C with 5% CO2. Transition through mitosis was documented by acquisition of four frames per hour over a period of 14 h using a CCD camera (Orca AG, Hamamatsu) and cellR® software (Olympus). HeLa-Kyoto cells (mCherry-H2B/EGFP-α-tubulin) were visualized by fluorescence microscopy with an Olympus IX 81 microscope using a 10x objective and selecting Ex. = 492 ± 18 nm/Em. = 535 ± 50 nm for the green channel and Ex. = 572 ± 23 nm/Em. = 645 ± 75 nm for the red channel.

[4] = compound 20 µM, relative to DMSO control

| Compound | remaining activity at 20 µM (CDC25A; [4]) [%] | effect on cell cycle distribution (DNA content) (HeLa cells [1]) | also measured |
| --- | --- | --- | --- |
| O=C1C=C(c2ccc(O)c(O)c2O)C(=O)c2ccccc21 [UPD-596, 2-(2,3,4-trihydroxyphenyl)-1,4-naphthoquinone] | 0 | increase of the G1 population | effect on the G1/S transition (HeLa cells [1]): ineffective |
| O=C1C=C(c2ccc(O)cc2O)C(=O)c2ccccc21 [UPD-597, 2-(2,4-dihydroxyphenyl)-1,4-naphthoquinone] | 3.1 ± 0.3 |  |  |
| O=C(O)c1ccc2c(c1)C(=O)c1c(O)ccc(O)c1C2=O [UPD-724, 1,4-dihydroxy-6-anthraquinonecarboxylic acid] | 98.9 ± 1.4 |  |  |
| O=C1C=CC(=O)c2c(O)cccc21 [UPD-738, 5-hydroxynaphtho-1,4-quinone] | 5.9 ± 0.1 | increase of the G1 population | metastasis (tumor cells in caudal hematopoietic plexus) (HCT116 tumors): did not appear to be significant; IC50 (HeLa cells [2]): 4400 nM; effect on the G1/S transition (HeLa cells [1]): effectively blocked cells in G1 |
| O=C1C=C(c2ccc(O)c(O)c2O)C(=O)c2c(O)cccc21 [UPD-786, 8-hydroxy-2-(2,3,4 trihydroxyphenyl) naphthalene-1,4-dione] | 0 | increase of the G1 population | IC50 (HeLa cells [2]): 6500 nM; IC50 (CDC25A): 890 nM |
| O=C1C=C(c2c(O)cc(O)cc2O)C(=O)c2c(O)cccc21 [UPD-788, 8-hydroxy-2-(2,4,6-trihydroxyphenyl)naphthalene-1,4-dione] | 70.1 ± 2 |  |  |
| COc1ccc(C2=CC(=O)c3cccc(O)c3C2=O)c(OC)c1 [UPD-790, 8-hydroxy-2-(2,4-dimethoxyphenyl)naphthalene-1,4-dione] | 5.6 ± 1.2 | accumulation of cells at G2/M | IC50 (HeLa cells [2]): 1410 nM; execution of mitosis at low dose (time-lapse) (HeLa cells [3]): failed attempt to round up and execute mitosis, which was followed by membrane blebbing and death; effect on the G2/M transition (HeLa cells [1]; double-thymidine synchronized HeLa, 10 μM added 5 h upon release, analysed 12 h post-release): accretion of the G2/M peak |
| Cc1ccc(SC2=CC(=O)c3cccc(O)c3C2=O)cc1 [UPD-793, 3-(p-tolylthio)juglone] |  | increase of the G1 population | % remaining activity ± SD (Table S2, second round of selection) (CDC25A; [4]): 1.0 ± 0.1%; IC50 (CDC25A): 920 nM; effect on the G1/S transition (HeLa cells [1]): effectively blocked cells in G1 |
| O=C1C=C(N2CCCCC2)C(=O)c2c(O)cccc21 [UPD-797, 8-hydroxy-2-(piperidin-1-yl)naphthalene-1,4-dione] | 8.5 ± 0.1 |  |  |
| O=C1C=C(N2CCOCC2)C(=O)c2c(O)cccc21 [UPD-798, N-(5-hydroxy-1,4-naphthoquinon-3-yl)morpholine] | 41.4 ± 0.4 |  |  |
| Nc1ccc(N)c2c1C(=O)C=CC2=O [UPD-1382, 5,8-diaminonaphthalene-1,4-dione] | 94.4 ± 0.6 |  |  |
| Cc1cc(O)c2c(n1)C(=O)C=CC2=O [UPD-1416, 4-Hydroxy-2-methylquinoline-5,8-dione] | 4.1 |  |  |
| Cc1ccc2c(n1)C(=O)C=CC2=O [UPD-1419, 2-methyl-5,8-dihydro-5,8-dioxoquinoline] | 1.9 ± 0.3 |  |  |
